{"source": "patent US11708326B2", "about": "“Immunomodulator compounds” (CHEMOCENTRYX, INC., priority 2017, dated 2023)"}
{"target": "human PD-L1 / Human PD-1 (Homo sapiens (Human), UniProt Q9NZQ7)", "sequence (Q9NZQ7 19-239)": "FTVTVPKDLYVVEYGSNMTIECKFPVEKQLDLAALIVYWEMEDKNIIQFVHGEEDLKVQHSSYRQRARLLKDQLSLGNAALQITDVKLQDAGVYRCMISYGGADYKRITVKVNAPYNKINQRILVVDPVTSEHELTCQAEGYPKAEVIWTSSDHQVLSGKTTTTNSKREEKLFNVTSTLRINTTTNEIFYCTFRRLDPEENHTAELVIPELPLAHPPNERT", "assay": "Enzyme-Linked Immunosorbent Assay (ELISA), human PD-1 binding to plate-coated human PD-L1", "details": "PD-1/PD-L1 ELISA, absorbance at 450 nm", "protocol": "Biological Example: Enzyme-Linked Immunosorbent Assay—ELISA\n96 Well plates were coated with 1 μg/mL of human PD-L1 (obtained from R&D) in PBS overnight at 4° C. The wells were then blocked with 2% BSA in PBS (W/V) with 0.05% TWEEN-20 for 1 hour at 37° C. The plates were washed 3 times with PBS/0.05% TWEEN-20 and the compounds were serial diluted (1:5) in dilution medium and added to the ELISA plates. Human PD-1 and biotin 0.3 μg/mL (ACRO Biosystems) were added and incubated for 1 hour at 37° C. then washed 3 times with PBS/0.05% TWEEN-20. A second block was performed with 2% BSA in PBS (W/V)/0.05% TWEEN-20 for 10 min at 37° C. and was washed 3 times with PBS/0.05% TWEEN-20. Streptavidin-HRP was added for 1 hour at 37° C. then washed 3 times with PBS/0.05% TWEEN-20. TMB substrate was added and reacted for 20 min at 37° C. A stop solution (2 N aqueous H2SO4) was added. The absorbance was read at 450 nm using a micro-plate spectrophotometer.", "units": {"IC50": "nM"}}
{"molecule": "Cc1c(OCCCN2CCC(O)CC2)cccc1-c1cccc2c1CC[C@@H]2Oc1cc(OCc2cncc(C#N)c2)c(CN[C@@](C)(CO)C(=O)O)cc1Cl", "IC50": "≤ 5"}
{"molecule": "Cc1c(OCCCN2CCC(O)CC2)cccc1-c1cccc2c1CC[C@@H]2Oc1cc(OCCCN2CC[C@@H](O)C2)c(CN[C@@H]2CCCC[C@@H]2O)cc1Cl", "IC50": "≤ 5"}
{"molecule": "C[C@@](CO)(NCc1cc(Cl)c(OC2CCc3c(-c4cccc(OCCCN5CC(O)C5)c4Cl)cc(F)cc32)cc1OCc1cncc(C#N)c1)C(=O)O", "note": "(stereo partly shown)", "IC50": "≤ 5"}
{"molecule": "COc1cc(OC2CCc3c(-c4cccc(OCCCN5CC(O)C5)c4Cl)cccc32)cc(OC)c1CN[C@@](C)(CO)C(=O)O", "note": "(stereo partly shown)", "IC50": "5 to 500"}
{"molecule": "N#Cc1cncc(COc2cc(O[C@H]3CCc4c(-c5cccc(OCCCN6CCC(F)CC6)c5Cl)cccc43)c(Cl)cc2CN[C@@H]2CCCC[C@H]2F)c1", "IC50": "5 to 500"}
{"molecule": "N#Cc1cncc(COc2cc(O[C@H]3CCc4c(-c5cccc(OCCCn6ccnc6)c5Cl)cccc43)c(Cl)cc2CN[C@@H]2CCCC[C@@H]2O)c1", "IC50": "5 to 500"}
{"molecule": "Cc1c(OCCCN2CCC(F)CC2)cccc1-c1cc(F)cc2c1CCC2Oc1cc(OCc2cc(C#N)cc(C#N)c2)c(CN[C@H]2CCC(=O)NC2)cc1Cl", "note": "(stereo partly shown)", "IC50": "5 to 500"}
{"molecule": "CCOc1cc(NC2CCc3c(-c4cccc(OCCCN5CCC(C)(F)CC5)c4C)cccc32)c(Cl)cc1CNC[C@@H]1CCC(=O)N1", "note": "(stereo partly shown)", "IC50": "5 to 500"}
{"molecule": "CCOc1cc(O[C@@H]2c3cccc(-c4cccc(OCCCN5CCC(C)(F)CC5)c4C)c3C[C@@H]2F)c(Cl)cc1CNC(C(=O)NS(C)(=O)=O)[C@@H](C)O", "note": "(stereo partly shown)", "IC50": "5 to 500"}
{"molecule": "CCOc1cc(NC2CCc3c(-c4cccc(OCCCN5CCCC5(C)C)c4C)cccc32)c(Cl)cc1CNC[C@@H]1CCC(=O)N1", "note": "(stereo partly shown)", "IC50": "5 to 500"}
